Paper PMC6400216 (Angewandte Chemie (International ed. in English), 2017)
Bridge positions count the residues as written; N and C are the ends. Square brackets hold non-standard residues; d marks the D form. Peptide text beside a SMILES is read from it. NMeF = CN[C@@H](Cc1ccccc1)C(=O)O; NMeNle = CCCC[C@H](NC)C(=O)O; NMeA = CN[C@@H](C)C(=O)O; Sar = CNCC(=O)O

Assays:
PD-L1 [1] = assay: differential scanning fluorimetry; type: binding; settings: DSF; for melting temperature of PD-L1 (Tm): PD-L1 alone Tm 37.6°C; for stabilization of PD-L1 against thermal induced unfolding: relative to PD-L1 alone (Tm 37.6°C)
PD-L1 [2] = assay: X-ray crystallography of PD-L1/peptide complexes; type: binding; settings: crystal structures of PD-L1/peptide-71 (2.5 Å) and PD-L1/peptide-57 (below 1 Å)

SMILES | melting temperature of PD-L1 (Tm) (PD-L1 [1]) [°C] | stabilization of PD-L1 against thermal induced unfolding (PD-L1 [1]) [°C] | binding site on PD-L1 (PD-L1 [2])
CCCC[C@H]1C(=O)N(C)CC(=O)N[C@@H](CC(=O)O)C(=O)N[C@@H](C(C)C)C(=O)N(C)[C@@H](Cc2ccccc2)C(=O)N[C@@H](Cc2ccc(O)cc2)C(=O)N(C)CC(=O)N[C@@H](Cc2c[nH]c3ccccc23)C(=O)N[C@@H](Cc2ccc(O)cc2)C(=O)N[C@@H](CC(C)C)C(=O)N[C@H](C(=O)NCC(N)=O)CSCC(=O)N[C@@H](Cc2ccccc2)C(=O)N(C)[C@@H](Cc2ccccc2)C(=O)N1C [peptide-71] ({CH2CO}-F[NMeF][NMeNle][Sar]DV[NMeF]Y[Sar]WYLCG-NH2; thioether N-13; N-terminus and C-terminus assumed) | 56.6 | 19 | bind to PD-L1 partially at the site of the PD-1 interaction
CCCC[C@H]1C(=O)N(C)[C@@H](CCCC)C(=O)N[C@@H](CCCNC(=N)N)C(=O)N[C@H](C(=O)NCC(N)=O)CSCC(=O)N[C@@H](Cc2ccccc2)C(=O)N(C)[C@@H](C)C(=O)N[C@@H](CC(N)=O)C(=O)N2CCC[C@H]2C(=O)N[C@@H](Cc2c[nH]cn2)C(=O)N[C@@H](CC(C)C)C(=O)N(C)CC(=O)N[C@@H](Cc2c[nH]c3ccccc23)C(=O)N[C@@H](CO)C(=O)N[C@@H](Cc2c[nH]c3ccccc23)C(=O)N1C [peptide-57] ({CH2CO}-F[NMeA]NPHL[Sar]WSW[NMeNle][NMeNle]RCG-NH2; thioether N-14; N-terminus and C-terminus assumed) | 51.6 | 14 | bind to PD-L1 partially at the site of the PD-1 interaction
